{"source": "patent US20040097435A1", "about": "“Method of treating parasitic infection” (Pfizer Inc, priority 2000, published 2004)", "key": {"Toxocara canis [1]": {"system": "Toxocara canis", "conditions": "6 mg/kg topical to dam; for geometric mean faecal egg count: puppies born to treated females", "experimental": "(§1) Twenty-one adult females were allocated randomly to one of two treatments: placebo (negative control, 11 animals), or selamectin (10 animals). The selamectin, was formulated as: […]\n(§2) Doses providing 6 mg/kg of selamectin were administered topically approximately 40 days and 10 days pre-partum and 10 days and 38 days post-partum in a single spot on the skin of each female's back at the base of the neck in front of the shoulder blades. Treatments were not administered to puppies. Post-partum day 1 was defined individually for each adult female as the day following the day of delivery of the last puppy in the litter.\n(§3) Following observations of signs of pro-oestrus, the females were moved into randomly allocated carpeted pens in a building where the environment was suitable for the rapid completion of the flea reproductive cycle.\n(§4) Each adult female was infested with 100 viable unfed adult C. felis approximately 60 days and 46 days pre-partum, and with 10 viable unfed adult fleas approximately 39, 33, 26, 19, 14 and 5 days pre-partum; an additional infestation was performed 7 days later if the female had not whelped. Each lactating female was also infested with 10 fleas on post-partum days 6, 15, 21, 28, 34 and 42. Comb counts of the number of viable adult fleas present on each female were made on approximately pre-partum days 41 and 11, and on postpartum days 9, 37 and 45. Comb counts of the fleas present on each puppy were performed on post-partum days 15, 24, 34, 42 and 45. After counting, up to 50 fleas per pregnant/lactating female and up to five fleas per puppy were replaced on each dog. For welfare reasons, if any dog was scratching or grooming excessively, additional unscheduled comb counts were performed on that dog and if necessary, the carpet was partially or entirely replaced to reduce the environmental flea challenge. Faecal egg counts for T. canis were performed for pregnant/lactating females on approximately pre-partum day 2 and on post-partum days 9, 17, 24 and 45, and for puppies on post-partum days 24 and 34."}, "Ctenocephalides felis [2]": {"system": "Ctenocephalides felis", "experimental": "as §1, §2, §3, §4"}, "Ctenocephalides felis [3]": {"system": "Ctenocephalides felis", "experimental": "(§5) Thirty-eight adult females were allocated randomly to one of two treatments: placebo (negative control, 19 animals), or selamectin (19 animals). The selamectin, was formulated as: […]\n(§6) Doses providing 6 mg/kg of selamectin were administered topically in a single spot on the skin of each female's back at the base of the neck in front of the shoulder blades on days 0 and 30 to individually-housed females and to females group-housed for mating on days 0, 30, 60 and 90 as required until kittening. All females were treated on post partum days 10 and 38. Treatments were not administered to kittens. […]. Study day 0 was defined individually for each adult female as the day on which the first treatment with either placebo or selamectin was administered and post partum day 1 was defined as the day following the day of delivery of the last kitten in the litter.", "remark": "listed apart in the source"}, "[4]": {"conditions": "6 mg/kg topical at monthly intervals during pregnancy and post partum, female cats"}, "[5]": {"conditions": "6 mg/kg topical at monthly intervals during pregnancy and post-partum, female dogs"}, "Toxocara cati": {"system": "Toxocara cati", "conditions": "post partum day 49", "experimental": "as §5, §6\nEach adult female was inoculated once with approximately 1000 embryonated T. cati ova, per os, between 150 and 31 days prior to commencing the study and again between 5 and 21 days before kittening.\nOn post partum day 49, each kitten was euthanased, its gastrointestinal tract was removed and intestinal larvae (L4) and adult T. cati were enumerated."}, "Toxocara canis [6]": {"system": "Toxocara canis", "conditions": "6 mg/kg topical to dam", "experimental": "as §1, §2, §3\nOn post-partum day 45, each puppy was euthanised, its gastro-intestinal tract was removed and intestinal larval (L4) and adult T. canis were enumerated."}, "intestinal nematode": {"system": "intestinal nematode", "conditions": "administered to pregnant bitch from pregnancy past parturition; Veterinary Parasitology, 1999, 85, 305; cited from earlier work"}, "[7]": {"system": "ectoparasites such as fleas", "conditions": "companion animals; cited from earlier work"}, "[8]": {"conditions": "kittens at necropsy, 6 mg/kg topical to dam"}}, "note": "Like-named read-outs stand apart in the source and are kept apart here."}
{"compound": "CO[C@H]1C[C@H](O[C@@H]2/C(C)=C/C[C@@H]3C[C@@H](C[C@]4(CC[C@H](C)[C@@H](C5CCCCC5)O4)O3)OC(=O)[C@@H]3C=C(C)/C(=N/O)[C@H]4OC/C(=C\\C=C\\[C@@H]2C)[C@]43O)O[C@@H](C)[C@@H]1O", "note": "[selamectin]", "values": [{"measurement": "reduction in mean faecal egg count compared with puppies born to placebo-treated females", "setting": "Toxocara canis [1]; post-partum day 24", "result": 96.8, "unit": "%"}, {"measurement": "reduction in mean faecal egg count compared with puppies born to placebo-treated females", "setting": "Toxocara canis [1]; post-partum day 34", "result": 96.1, "unit": "%"}, {"measurement": "geometric mean faecal egg count", "setting": "Toxocara canis [1]; post-partum day 24", "result": 0.8, "unit": "epg"}, {"measurement": "geometric mean faecal egg count", "setting": "Toxocara canis [1]; post-partum day 34", "result": 2.1, "unit": "epg"}, {"measurement": "reduction in mean flea comb counts compared with puppies born to placebo-treated females", "setting": "Ctenocephalides felis [2]; puppies, all counting days (post-partum days 15, 24, 34, 42 and 45)", "result": 100.0, "unit": "%"}, {"measurement": "geometric mean flea comb count", "setting": "Ctenocephalides felis [2]; puppies, all counting days (post-partum days 15, 24, 34, 42 and 45), 6 mg/kg topical to dam", "result": 0}, {"measurement": "females or their puppies requiring additional flea control measures", "setting": "Ctenocephalides felis [2]; to maintain flea burdens within acceptable limits", "result": "None"}, {"measurement": "females or their kittens requiring additional flea control measures", "setting": "Ctenocephalides felis [3]; after the first treatment on day 0, to maintain flea burdens within acceptable limits", "result": "none"}, {"measurement": "reduction in mean flea comb counts compared with kittens born to placebo-treated females", "setting": "Ctenocephalides felis [3]; kittens, all counting days (post partum days 15, 24, 34, 42 and 49)", "result": 100, "unit": "%"}, {"measurement": "geometric mean flea comb count", "setting": "Ctenocephalides felis [3]; kittens, all counting days (post partum days 15, 24, 34, 42 and 49), 6 mg/kg topical to dam", "result": "zero"}, {"measurement": "safety of treatment", "setting": "[4]", "result": "safe"}, {"measurement": "safety of treatment", "setting": "[5]", "result": "safe"}, {"measurement": "geometric mean L4 T. cati count", "setting": "Toxocara cati; [8]", "result": 0.0}, {"measurement": "geometric mean adult T. cati count", "setting": "Toxocara cati; [8]", "result": 0.0}, {"measurement": "reduction in mean adult T. cati count compared with kittens born to placebo-treated females", "setting": "Toxocara cati", "result": 100, "unit": "%"}, {"measurement": "reduction in mean fourth stage larvae (L4) T. cati count compared with kittens born to placebo-treated females", "setting": "Toxocara cati", "result": 100, "unit": "%"}, {"measurement": "reduction in mean adult T. canis count compared with puppies born to placebo-treated females", "setting": "Toxocara canis [6]; necropsy post partum day 45", "result": 98.2, "unit": "%"}, {"measurement": "geometric mean adult T. canis worm count", "setting": "Toxocara canis [6]; puppies at necropsy, post-partum day 45", "result": 0.1}]}
{"compound": "ivermectin", "values": [{"measurement": "prevention of intestinal nematode infections in pups", "setting": "intestinal nematode", "result": "can prevent intestinal nematode infections in pups"}, {"measurement": "activity against ectoparasites such as fleas", "setting": "[7]", "result": "poor activity"}]}
{"compound": "CO[C@H]1C[C@H](O[C@H]2[C@H](C)O[C@@H](O[C@@H]3/C(C)=C/C[C@@H]4C[C@@H](C[C@]5(C=C[C@H](C)[C@@H](C6CCCCC6)O5)O4)OC(=O)[C@@H]4C=C(C)[C@@H](O)[C@H]5OC/C(=C\\C=C\\[C@@H]3C)[C@]54O)C[C@@H]2OC)O[C@@H](C)[C@@H]1O", "note": "[doramectin]", "values": [{"measurement": "activity against ectoparasites such as fleas", "setting": "[7]", "result": "poor activity"}]}
